Earlier results on 2 molecules are cited in patent US7101912B2, “Carbidopa prodrugs and derivatives, and compositions and uses thereof” (XenoPort, Inc., priority 2002, dated 2006).

Molecules are shown by their SMILES.

For series [1] the following is noted: rats.

As to `C[C@@](Cc1ccc(O)c(O)c1)(NN)C(=O)O` [carbidopa], in series [1], the “absorption following rectal administration” value is listed as “poor”. For the molecule `CC(C)(C)C(=O)Oc1ccc(C[C@H](N)C(=O)O)cc1O` [NB-355], the “conversion of the prodrug to levodopa in rat plasma” value (following absorption from an intestinal loop) is given as “slow”. Under “rat plasma following absorption from an intestinal loop”, the levels of levodopa entry is “low”.
